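Test compounds were applied to cells in 96-well plates for 48 hours at 5 doses. GI50 is the concentration that inhibits growth by half. TGI is the concentration that stops growth completely.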
Experiments:
Experiment in all cases: NCI tumour cell line growth inhibition, 48 h
[1] = test system: BT-549 breast
[2] = test system: MDA-MB-231 breast
[3] = test system: MCF7 breast
[4] = test system: HS 578T breast
[5] = test system: T-47D breast
[6] = test system: PC-3 prostate
[7] = test system: NCI/ADR-RES ovarian
[8] = test system: XF 498 CNS
[9] = test system: RXF-631 renal
[10] = test system: DLD-1 colon
[11] = test system: LXFL 529 NSCLC

Compound	GI50 [1] [µM]	TGI [1] [µM]	GI50 [2] [µM]	TGI [2] [µM]	GI50 [3] [µM]	TGI [3] [µM]	GI50 [4] [µM]	TGI [4] [µM]	GI50 [5] [µM]	TGI [5] [µM]	GI50 [6] [µM]	TGI [6] [µM]	GI50 [7] [µM]	TGI [7] [µM]	TGI [8] [µM]	TGI [9] [µM]	TGI [10] [µM]	TGI [11] [µM]	GI50 [11] [µM]	GI50 [10] [µM]
COc1ccc2c(c1)CCC1C2CC[C@]2(C)/C(=N/OC(=O)Cc3ccccc3)CCC12 (stereo not given in full)	24.7	49.4	17.3	38.6	24.7	54.5	28.6	70	19.5	52.2	18.5	59.4	20.9	39.8	–	–	–	–	–	–
Cc1ccccc1C(C#N)C(=O)C(=O)Nc1cccc(Cl)c1 (stereo not given)	–	–	–	–	–	–	–	–	–	–	–	–	–	–	> 100	> 100	> 100	–	–	–
Cc1[nH]c(=O)[nH]c(=O)c1CO	> 100	> 100	> 100	> 100	> 100	> 100	> 100	> 100	> 100	> 100	> 100	> 100	> 100	> 100	–	–	–	–	–	–
CCN(CC)C(=O)COc1ccc(Br)cc1Br	–	–	–	–	–	–	–	–	–	–	–	–	–	–	–	> 100	> 100	> 100	–	–
NCc1nnn(Cc2ccccc2)c1N	–	> 100	–	> 100	–	> 100	–	> 100	–	> 100	–	> 100	–	> 100	–	–	–	–	–	–
CN(C)CCCc1c[nH]c2ccccc12	–	> 100	–	> 100	–	> 100	–	> 100	–	> 100	–	> 100	–	> 100	–	–	–	–	–	–
CCCc1nc2c(C)cc(-c3nc4ccccc4n3C)cc2n1Cc1ccc(-c2ccccc2C(=O)O)cc1	52.3	> 100	30.3	> 100	31.9	> 100	38.1	> 100	48.5	> 100	29.4	> 100	41.9	> 100	–	–	–	–	–	–
CCOC(=O)c1c(C(F)(F)F)n([O-])c2ccc(OC)cc2[n+]1=O	4.29	33.7	5.38	51.6	4.38	65	4.07	46.2	2.6	8.69	2.99	> 100	3.72	40.7	–	–	–	–	–	–
CC1C=CC(=O)C(n2cc(F)c(=O)[nH]c2=O)O1 (stereo not given)	–	–	–	–	–	–	–	–	–	–	–	–	–	–	28.7	48	45.3	–	–	–
COc1ccc2nc3ccccc3c(NCCCCCCN(C)CCCl)c2c1	–	–	–	–	–	–	–	–	–	–	–	–	–	–	0.845	–	–	1.76	–	–
COc1ccc(NC(=O)c2sc3nc(C)c(C(O)c4ccccc4)cc3c2N)cc1 (stereo not given)	6.13	51.6	2.96	> 100	0.502	54.2	1.73	6.86	3.36	98.3	3.31	> 100	2.55	9.03	–	–	–	–	–	–
Cc1ccc(S(=O)(=O)N2CCc3ccc(O)c4c3C2Cc2cc(Cl)ccc2-4)cc1 (stereo not given)	1.95	9.66	1.21	4.74	1.08	6.28	0.889	6.68	1.76	19.7	0.917	6.8	0.819	2.27	–	–	–	–	–	–
COc1ccc(/C=C/c2n[nH]c3ccc(N4CCOC4=O)cc23)cc1	1.14	5.32	2.98	9.8	1.93	40.3	3.23	9.59	3.01	8.56	3.22	11.2	2.99	40.2	–	–	–	–	–	–
COc1ccc(C2=NN(C(C)=O)C(c3cn(-c4ccccc4)nc3-c3ccc(Cl)cc3)C2)cc1 (stereo not given)	> 100	> 100	> 100	> 100	> 100	> 100	4.88	> 100	> 100	> 100	> 100	> 100	> 100	> 100	–	–	–	–	–	–
CCn1cnc2c(Nc3cccc(Cl)c3)nc(N[C@@H]3CCCC[C@@H]3N)nc21	1.73	3.73	1.83	5.37	0.824	3.23	2.36	7.99	1.98	5.16	1.3	3.36	2.04	6.71	–	–	–	–	–	–
COc1ccc(/C(C)=N/OC(=O)c2c(-c3ccccc3Cl)noc2C)cc1CN1CCOCC1	–	54.9	–	66.5	–	46.3	–	> 100	–	71	–	98.1	–	> 100	–	–	–	–	–	–
N.N.NCCCCN.O=C([O-])C1(C(=O)[O-])CCC1.O=C([O-])C1(C(=O)[O-])CCC1.[Pt+4].[Pt+4]	–	–	–	–	–	–	–	–	–	–	–	–	–	–	–	–	> 100	> 100	> 100	> 100
O=C(COc1ccccc1)NS(=O)(=O)c1ccccc1	–	–	–	–	–	–	–	–	–	–	–	–	–	–	–	> 100	> 100	> 100	–	–
